From the NIST ThermoML archive (doi:10.1016/j.tca.2019.05.006)

Experiment: molar heat capacity at constant pressure
Settings: 101.33 kPa, Crystal, DSC

[Cu+2].[O-2] [copper(II) oxide]
Settings | molar heat capacity at constant pressure [J/K/mol]
300 K | 44.4
325 K | 45.8
350 K | 46.8
375 K | 47.7
400 K | 48.5
425 K | 49.2
450 K | 49.7
475 K | 50.3
500 K | 50.8
525 K | 51.2
550 K | 51.6
575 K | 51.9
600 K | 52.3
625 K | 52.6
650 K | 52.9
675 K | 53.2
700 K | 53.5
725 K | 53.8
750 K | 54
775 K | 54.3
800 K | 54.5
825 K | 54.7
